The values that follow come from ChEMBL document CHEMBL1136837, “Unified QSAR approach to antimicrobials. 4. Multi-target QSAR modeling and comparative multi-distance study of the giant components of antiviral drug-drug complex networks” (Bioorg Med Chem, 2009).

Assay [1] concerns Hepatitis B virus. The assay can be described thus: Antiviral activity against Hepatitis B virus. It is filed as functional, organism-based.
The subject of assay [2] is Hepatitis C virus. Kind of assay: Antiviral activity against Hepatitis C virus. In kind it is functional, organism-based, Hepacivirus hominis. Particulars: Hepatitis C virus.
In assay [3] the test system is Human papillomavirus. The assay can be described thus: Antiviral activity against Human papillomavirus. It is filed as functional, organism-based.
The subject of assay [4] is Human immunodeficiency virus 1. The assay can be described thus: Antiviral activity against HIV1. It is filed as functional, organism-based.
The test system of assay [5] is Human alphaherpesvirus 3. The assay can be described thus: Antiviral activity against Varicella zoster virus. In kind it is functional, organism-based.

Broadly, the IC50 is the concentration that inhibits the measured activity by half. Low readings indicate greater potency in that assay, high ones weaker potency in that assay. As for `Cc1cn([C@H]2C[C@H](OP(=O)(S)OC[C@H]3O[C@@H](n4cnc5c(N)ncnc54)C[C@@H]3O)[C@@H](COP(=O)(S)O[C@H]3C[C@H](n4ccc(N)nc4=O)O[C@@H]3CO)O2)c(=O)[nH]c1=O` (stereo partly specified), the results for the IC50 in assay [1] and in assay [2] were 2.1 µM and 1 µM, respectively. For the compound `Nc1ncnc2c1ccn2[C@H]1C[C@H](OP(=O)(S)OC[C@H]2O[C@@H](n3cnc4c(N)ncnc43)C[C@@H]2O)[C@@H](CO)O1` (stereo partly specified), the values for the half-inhibitory concentration (IC50) in assay [1] and in assay [2] were 0.3 µM and 1 µM, respectively. In assay [3], `O=C(O)CS(=O)(=O)c1ccc(-c2ccc(CC(=O)NCc3ccccc3)cc2)cc1` had an IC50 of 0.34 µM. The same measure, in the same setting: as for `O=S(=O)(Cc1nnn[nH]1)c1ccc(-c2ccccc2)cc1`, the figure is 63 µM; as for `O=C(O)CS(=O)(=O)c1ccc(-c2cccc(C(=O)N3CCOCC3)c2)cc1`, 22 µM. `O=P(O)(O)CS(=O)(=O)c1ccc(-c2ccccc2)cc1` displayed an IC50 in assay [3] of 30 µM.

On to `O=C(O)CS(=O)(=O)c1ccc(-c2ccc(CC(=O)Nc3ccccc3)cc2)cc1`, for which 0.16 µM corresponded to half-maximal inhibition in assay [3] (IC50).

`O=C(O)CS(=O)(=O)c1ccc2ccccc2c1`: the IC50 in assay [3] is 40 µM. Regarding `Cc1cccc(CNC(=O)c2cccc(-c3ccc(S(=O)(=O)CC(=O)O)cc3)c2)c1C`, the IC50 in assay [3] is 0.0092 µM. Same read-out and setting: to `Cc1cccc(CNC(=O)c2cccc(-c3ccc(S(=O)(=O)CC(=O)O)cc3)c2)c1` belongs 0.027 µM; to `O=C(O)CS(=O)(=O)c1ccc(-c2ccc(C(=O)Nc3ccccc3)cc2)cc1`, 1.3 µM. On the same count and under the same terms, to `O=C(O)CS(=O)(=O)c1ccc(-c2ccc(C(=O)N(Cc3ccccc3)Cc3ccccc3)cc2)cc1` belongs 1.1 µM; to `O=[N+]([O-])CS(=O)(=O)c1ccc(-c2ccccc2)cc1`, 65 µM; to `O=C(O)CSc1ccc(-c2ccccc2)cc1`, 80 µM. Same read-out and setting: as for `O=S(=O)(O)CS(=O)(=O)c1ccc(-c2ccccc2)cc1`, the figure is 32 µM. Compound `O=C(NCc1cccc2ccccc12)c1cccc(-c2ccc(C(=O)C(F)(F)P(=O)(O)O)cc2)c1` had an IC50 in assay [3] of 0.74 µM. The compound `O=C(O)CS(=O)(=O)c1ccc(-c2ccc(C(=O)NCc3ccccc3)cc2)cc1` gave an IC50 in assay [3] of 0.51 µM.

`O=C(O)CS(=O)(=O)c1ccc(-c2cccc(CC(=O)Nc3ccccc3)c2)cc1` came in with an IC50 in assay [3] of 0.11 µM.

As to `CS(=O)(=O)c1ccc(-c2ccccc2)cc1`, the IC50 in assay [3] stood at 80 µM. With `Nc1ncnc2c1ncn2/C=C1/CC1(F)CO` (stereo unspecified), the results for the IC50 in assay [1], in assay [4] and in assay [5] were 20 µM, 12 µM and 14 µM, respectively. The compound `CN(C(=O)c1ccc(-c2ccc(S(=O)(=O)CC(=O)O)cc2)cc1)c1ccccc1` came in with a 50% inhibitory concentration (IC50) in assay [3] of 4.8 µM. On the same count and under the same terms, as for `C[C@H](NC(=O)c1cccc(-c2ccc(S(=O)(=O)CC(=O)O)cc2)c1)c1ccccc1`, the figure is 1.7 µM. In turn, `Cc1ccccc1CNC(=O)c1cccc(-c2ccc(S(=O)(=O)CC(=O)O)cc2)c1` had a concentration for half-maximal inhibition (IC50) in assay [3] of 0.032 µM.

As for `C[C@@H](NC(=O)c1cccc(-c2ccc(S(=O)(=O)CC(=O)O)cc2)c1)c1ccccc1`, the IC50 in assay [3] is 0.043 µM. In assay [3], `O=C(O)CS(=O)(=O)c1ccc(-c2ccc(C(=O)N3CCCCC3)cc2)cc1` had a 50% inhibitory concentration (IC50) of 3.3 µM. For `O=C(O)CS(=O)(=O)c1ccc(-c2cccc(CC(=O)NCc3ccccc3)c2)cc1`, half-maximal inhibition in assay [3] (IC50) was put at 0.3 µM. Take `Nc1ncnc2c1ncn2/C=C1\CC1(F)CO` (stereo unspecified): the figures for the IC50 in assay [1] and in assay [5] were 15 µM and 83.4 µM, respectively. For `Nc1nc2c(ncn2/C=C2/CC2(F)CO)c(=O)[nH]1` (stereo unspecified), the values for the concentration for half-maximal inhibition (IC50) in assay [1], in assay [4] and in assay [5] were 20 µM, 100 µM and 79.6 µM, respectively.

`NC(=O)CS(=O)(=O)c1ccc(-c2ccccc2)cc1` came in with an IC50 in assay [3] of 80 µM. On the same count and under the same terms, to `O=C(O)CS(=O)(=O)c1ccc(-c2cccc(C(=O)NCc3cccc4ccccc34)c2)cc1` belongs 0.0043 µM; to `CC(C)(C(=O)O)S(=O)(=O)c1ccc(-c2ccccc2)cc1`, 80 µM; to `O=C(O)CS(=O)(=O)c1ccc(NCCc2ccccc2)cc1`, 67 µM. Regarding `O=C(O)CS(=O)(=O)c1ccc(Sc2ccccc2)cc1`, it took 80 µM to reach half-maximal inhibition in assay [3] (IC50). The same measure, in the same setting: as for `O=C(O)CS(=O)(=O)c1cccc(COc2ccccc2)c1`, the figure is 80 µM.
